In one data set the target is T1, A-Raf (Homo sapiens, UniProt P10398).
T1 sequence (P10398 1-606): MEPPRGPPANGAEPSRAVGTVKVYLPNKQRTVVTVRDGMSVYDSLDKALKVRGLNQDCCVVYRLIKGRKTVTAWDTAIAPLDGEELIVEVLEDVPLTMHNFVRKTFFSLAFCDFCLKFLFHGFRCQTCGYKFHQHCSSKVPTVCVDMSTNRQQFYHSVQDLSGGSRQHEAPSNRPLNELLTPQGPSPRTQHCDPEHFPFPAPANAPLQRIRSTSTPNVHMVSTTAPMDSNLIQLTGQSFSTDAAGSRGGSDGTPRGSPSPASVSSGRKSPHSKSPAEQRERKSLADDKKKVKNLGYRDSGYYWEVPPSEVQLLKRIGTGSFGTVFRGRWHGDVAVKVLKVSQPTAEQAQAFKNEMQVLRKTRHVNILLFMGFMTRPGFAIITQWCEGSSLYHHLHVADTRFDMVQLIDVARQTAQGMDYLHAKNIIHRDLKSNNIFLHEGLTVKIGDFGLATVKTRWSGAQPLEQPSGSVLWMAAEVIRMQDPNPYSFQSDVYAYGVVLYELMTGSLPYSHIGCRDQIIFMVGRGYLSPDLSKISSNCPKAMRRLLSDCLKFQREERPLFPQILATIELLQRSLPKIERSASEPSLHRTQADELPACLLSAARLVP
The experiment in a line: Raf kinase assay (Kinase HotSpot, Reaction Biology Corp.). The settings on record: fixed concentration 1 μM; mean of two independent experiments. In kind it is biochemical. How it is done: Compounds were delivered into each Raf reaction, followed ∼20 min later by addition of a mixture of ATP and [γ-^33P-ATP] (specific activity approx. 500 cpm/pmol, concentration as required) to a final concentration of 10 µM. […] Then, the reaction was spotted onto a P30 filtermat, and unbound phosphate was removed by washing three times for 5 min in 75 mM phosphoric acid and once in methanol prior to drying and scintillation counting. […] IC50 values and curve fits were obtained using Prism (GraphPad Software, La Jolla, CA).

The next data set addresses B-Raf (Homo sapiens, UniProt P15056). Described as above. In kind it is biochemical. The settings on record: fixed concentration 1 μM; mean of two independent experiments. How it is done:
(§1) Compounds were delivered into each Raf reaction, followed ∼20 min later by addition of a mixture of ATP and [γ-^33P-ATP] (specific activity approx. 500 cpm/pmol, concentration as required) to a final concentration of 10 µM. After incubation for 40 min at 25 °C, the reaction was stopped by the addition of a 3% phosphoric acid solution. Then, the reaction was spotted onto a P30 filtermat, and unbound phosphate was removed by washing three times for 5 min in 75 mM phosphoric acid and once in methanol prior to drying and scintillation counting. […] IC50 values and curve fits were obtained using Prism (GraphPad Software, La Jolla, CA).

A further data set concerns the target B-Raf (V600E) (Homo sapiens, UniProt P15056, V600E). The description is as above. In kind it is biochemical. To be noted: fixed concentration 1 μM; mean of two independent experiments; B-Raf (V599E). How it is done:
as §1

For a further data set, the target named is C-Raf (Homo sapiens, UniProt P04049). Described as above. The settings on record: fixed concentration 1 μM; mean of two independent experiments; read-out: Inhibition (%) C-Raf. In kind it is biochemical. How it is done:
as §1

Molecules are shown by their SMILES.

C-Raf, sequence (P04049 whole entry): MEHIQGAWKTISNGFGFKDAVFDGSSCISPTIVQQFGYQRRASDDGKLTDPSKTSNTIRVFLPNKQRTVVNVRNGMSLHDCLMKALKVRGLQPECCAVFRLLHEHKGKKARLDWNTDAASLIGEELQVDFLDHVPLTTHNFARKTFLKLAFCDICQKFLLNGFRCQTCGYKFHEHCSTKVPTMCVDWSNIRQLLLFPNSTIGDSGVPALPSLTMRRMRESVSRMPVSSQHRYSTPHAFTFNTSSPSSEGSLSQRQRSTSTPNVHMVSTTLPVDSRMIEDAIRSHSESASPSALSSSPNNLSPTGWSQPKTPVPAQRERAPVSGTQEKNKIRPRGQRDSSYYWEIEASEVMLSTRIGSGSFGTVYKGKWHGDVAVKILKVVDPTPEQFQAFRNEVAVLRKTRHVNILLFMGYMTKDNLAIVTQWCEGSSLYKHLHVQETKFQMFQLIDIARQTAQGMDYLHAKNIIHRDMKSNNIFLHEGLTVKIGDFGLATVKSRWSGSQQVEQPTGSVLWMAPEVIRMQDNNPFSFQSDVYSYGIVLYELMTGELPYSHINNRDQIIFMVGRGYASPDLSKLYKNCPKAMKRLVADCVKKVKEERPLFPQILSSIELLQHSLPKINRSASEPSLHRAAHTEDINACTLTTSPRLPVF
B-Raf (V600E), sequence (P15056 whole entry V600E): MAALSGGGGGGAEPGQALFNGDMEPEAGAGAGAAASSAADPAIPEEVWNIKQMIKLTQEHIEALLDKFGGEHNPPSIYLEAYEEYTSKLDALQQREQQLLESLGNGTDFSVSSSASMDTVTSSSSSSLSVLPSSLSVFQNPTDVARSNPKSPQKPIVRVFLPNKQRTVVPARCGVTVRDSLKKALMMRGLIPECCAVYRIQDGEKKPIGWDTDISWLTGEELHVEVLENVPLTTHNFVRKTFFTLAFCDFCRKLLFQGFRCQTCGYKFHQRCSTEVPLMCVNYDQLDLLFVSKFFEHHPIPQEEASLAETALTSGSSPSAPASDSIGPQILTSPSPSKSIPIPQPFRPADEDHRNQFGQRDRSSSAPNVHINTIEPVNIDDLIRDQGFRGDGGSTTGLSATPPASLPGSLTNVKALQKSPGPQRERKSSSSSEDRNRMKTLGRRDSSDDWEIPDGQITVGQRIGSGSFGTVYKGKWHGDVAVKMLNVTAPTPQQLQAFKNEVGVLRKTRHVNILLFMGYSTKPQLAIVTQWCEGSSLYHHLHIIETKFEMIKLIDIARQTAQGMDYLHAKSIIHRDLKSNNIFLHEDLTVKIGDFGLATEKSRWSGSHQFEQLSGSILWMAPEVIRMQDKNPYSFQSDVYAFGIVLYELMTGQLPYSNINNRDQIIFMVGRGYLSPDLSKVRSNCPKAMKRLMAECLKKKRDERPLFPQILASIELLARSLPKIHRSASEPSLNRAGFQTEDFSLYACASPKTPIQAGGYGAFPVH
B-Raf, sequence (P15056 whole entry): as the sequence (P15056 whole entry V600E) above, with E600V counted along it

Usually melting point stands for the temperature, or range, at which the solid turns liquid. Usually inhibition stands for the relative decrease from the control value, in per cent. On to `CNC(=O)c1cc(Oc2c(C)nc(NC(=O)NCc3ccccc3)c(C)c2C)ccn1` [Compound 18, 4-((6-(3-Benzylureido)-2,4,5-trimethylpyridin-3-yl)oxy)-N-methylpicolinamide], for which the melting point came out at 195 °C. The inhibition at 1 µM against A-Raf was found to be 7.8%. Besides, at B-Raf, the inhibition at 1 µM is -14.5%. The inhibition at 1 µM against B-Raf (V600E) worked out at 13.3%.

`CNC(=O)c1cc(Oc2c(C)nc(NC(=O)NC3CC3)c(C)c2C)ccn1` [Compound 20, 4-((6-(3-Cyclopropylureido)-2,4,5-trimethylpyridin-3-yl)oxy)-N-methylpicolinamide] displayed a melting point of 192 °C. Moreover, the inhibition at 1 µM at A-Raf was 16.4%. Moreover, the inhibition at 1 µM at B-Raf was -10%. Also, the inhibition at 1 µM at C-Raf is -0.8%. In addition, the inhibition at 1 µM against B-Raf (V600E) turned out to be 8.9%.

With `CNC(=O)c1cc(Oc2c(C)nc(NC(=O)Nc3ccc(Cl)cc3)c(C)c2C)ccn1` [Compound 5, 4-((6–(3-(4-Chlorophenyl)ureido)-2,4,5-trimethylpyridin-3-yl)oxy)-N-methylpicolinamide], the melting point amounted to 248 °C. On A-Raf, the inhibition at 1 µM was 70.2%. Further, the inhibition at 1 µM against B-Raf is 63%. Also, the inhibition at 1 µM on C-Raf is 83.1%. The inhibition at 1 µM against B-Raf (V600E) came to 69.4%.

Take `CNC(=O)c1cc(Oc2c(C)nc(NC(=O)Nc3ccc(F)cc3)c(C)c2C)ccn1` [Compound 8, 4-((6-(3-(4-Fluorophenyl)ureido)-2,4,5-trimethylpyridin-3-yl)oxy)-N-methylpicolinamide]: the melting point came to 253 °C. On A-Raf, the inhibition at 1 µM worked out at 78.4%. Besides, at B-Raf, the inhibition at 1 µM came out at 61.5%. Moreover, the inhibition at 1 µM at C-Raf came out at 78.2%. Besides, the inhibition at 1 µM against B-Raf (V600E) turned out to be 77.9%.

For `CNC(=O)c1cc(Oc2c(C)nc(NC(=O)Nc3ccc(Cl)c(C(F)(F)F)c3)nc2C)ccn1` [Compound 28, 4-((2-(3-(4-Chloro-3-(trifluoromethyl)phenyl)ureido)-4,6-dimethylpyrimidin-5-yl)oxy)-N-methylpicolinamide], the melting point stood at 251 °C. The inhibition at 1 µM against A-Raf is 72.4%. The inhibition at 1 µM against B-Raf was found to be 48.5%. Moreover, the inhibition at 1 µM at C-Raf came out at 91%. Moreover, the inhibition at 1 µM on B-Raf (V600E) was determined as 75.2%.

Regarding `CNC(=O)c1cc(Oc2c(C)nc(NC(=O)Nc3ccc(N)cc3)c(C)c2C)ccn1` [Compound 23, 4-((6-(3-(4-Aminophenyl)ureido)-2,4,5-trimethylpyridin-3-yl)oxy)-N-methylpicolinamide], the melting point came to 205 °C. Besides, the inhibition at 1 µM against A-Raf was 11%. At B-Raf, the inhibition at 1 µM came out at 0.3%. Besides, the inhibition at 1 µM on C-Raf was found to be 6.7%. Further, the inhibition at 1 µM on B-Raf (V600E) worked out at 11.6%.

Take `CNC(=O)c1cc(Oc2c(C)nc(NC(=O)NC(=O)c3ccccc3)c(C)c2C)ccn1` [Compound 21, 4-((6-(3-Benzoylureido)-2,4,5-trimethylpyridin-3-yl)oxy)-N-methylpicolinamide]: the melting point turned out to be 177 °C. Besides, the inhibition at 1 µM at A-Raf came to 18.9%. For the same compound, the inhibition at 1 µM at B-Raf came to 8.6%. Moreover, the inhibition at 1 µM on C-Raf turned out to be 35.2%. In addition, the inhibition at 1 µM against B-Raf (V600E) worked out at 26.7%.

`CNC(=O)c1cc(Oc2c(C)nc(NC(=O)Nc3cccc4ccccc34)c(C)c2C)ccn1` [Compound 17, N-Methyl-4-((2,4,5-trimethyl-6-(3-(naphthalen-1-yl)ureido)pyridin-3-yl)oxy)picolinamide] gave a melting point of 266 °C. For the same compound, the inhibition at 1 µM against A-Raf amounted to 10.2%. For the same compound, the inhibition at 1 µM at B-Raf was -6.8%. The inhibition at 1 µM at C-Raf was 7.1%. For the same compound, the inhibition at 1 µM on B-Raf (V600E) was determined as 10.1%.

Compound `CNC(=O)c1cc(Oc2c(C)nc(N)c(C)c2C)ccn1` [Compound 3, 4-((6-Amino-2,4,5-trimethylpyridin-3-yl)oxy)-N-methylpicolinamide] had a melting point of 193 °C. The inhibition at 1 µM against A-Raf came out at 17.6%. At B-Raf, the inhibition at 1 µM is -15.4%. For the same compound, the inhibition at 1 µM on C-Raf amounted to 0%. Besides, on B-Raf (V600E), the inhibition at 1 µM amounted to 9.4%.

`Cc1nc(NC(=O)Nc2ccc(Cl)c(C(F)(F)F)c2)c(C)c(C)c1OCc1ccccc1` [Compound 24, 1-(5-(Benzyloxy)-3,4,6-trimethylpyridin-2-yl)-3-(4-chloro-3-(trifluoromethyl)phenyl)urea] gave a melting point of 206 °C. Further, the inhibition at 1 µM on A-Raf turned out to be 11.9%. Moreover, the inhibition at 1 µM at B-Raf was -19.3%. Further, on C-Raf, the inhibition at 1 µM is -8.3%. Besides, the inhibition at 1 µM against B-Raf (V600E) stood at 4.4%.

In the case of `CNC(=O)c1cc(Oc2c(C)nc(NC(=O)Nc3c(C)cccc3C(C)(C)C)c(C)c2C)ccn1` [Compound 16, 4-((6-(3-(2-(Tert-Butyl)-6-methylphenyl)ureido)-2,4,5-trimethylpyridin-3-yl)oxy)-N-methylpicolinamide], the melting point turned out to be 206 °C. In addition, on A-Raf, the inhibition at 1 µM was found to be 8.6%. The inhibition at 1 µM on B-Raf is -7.1%. In addition, on C-Raf, the inhibition at 1 µM was -6.4%. The inhibition at 1 µM against B-Raf (V600E) worked out at 7.1%.

In the case of `CNC(=O)c1cc(Oc2c(C)nc(NC(=O)Nc3ccc(C(F)(F)F)cc3)c(C)c2C)ccn1` [Compound 11, N-Methyl-4-((2,4,5-trimethyl-6-(3-(4-(trifluoromethyl)phenyl)ureido)pyridin-3-yl)oxy)picolinamide], the melting point was 254 °C. In addition, the inhibition at 1 µM against A-Raf was found to be 66.3%. On B-Raf, the inhibition at 1 µM was 66.8%. Also, the inhibition at 1 µM on C-Raf amounted to 90.4%. Moreover, the inhibition at 1 µM against B-Raf (V600E) came out at 71.9%.

In turn, `CNC(=O)c1cc(Oc2c(C)nc(NC(=O)Nc3ccc(OC(F)(F)F)cc3)c(C)c2C)ccn1` [Compound 12, N-Methyl-4-((2,4,5-trimethyl-6-(3-(4-(trifluoromethoxy)phenyl)ureido)pyridin-3-yl)oxy)picolinamide] registered a melting point of 185 °C. In addition, the inhibition at 1 µM against A-Raf came out at 12.4%. Besides, the inhibition at 1 µM against B-Raf stood at 6.6%. Also, the inhibition at 1 µM on C-Raf was determined as 37.5%. Moreover, the inhibition at 1 µM at B-Raf (V600E) was found to be 22.2%.

Compound `CNC(=O)c1cc(Oc2c(C)nc(NC(=O)Nc3ccccc3)c(C)c2C)ccn1` [Compound 7, N-Methyl-4-((2,4,5-trimethyl-6-(3-phenylureido)pyridin-3-yl)oxy)picolinamide] yielded a melting point of 229 °C. Besides, the inhibition at 1 µM at A-Raf amounted to 49.3%. Also, the inhibition at 1 µM at B-Raf was 24.8%. Besides, the inhibition at 1 µM at C-Raf was 46.4%. Further, the inhibition at 1 µM on B-Raf (V600E) amounted to 48%.

`CNC(=O)c1cc(Oc2c(C)nc(NC(=O)Nc3ccc(C)cc3)c(C)c2C)ccn1` [Compound 14, N-Methyl-4-((2,4,5-trimethyl-6-(3-(p-tolyl)ureido)pyridin-3-yl)oxy)picolinamide] returned a melting point of 247 °C. Moreover, the inhibition at 1 µM against A-Raf is 51%. For the same compound, the inhibition at 1 µM against B-Raf turned out to be 44.5%. Besides, the inhibition at 1 µM on C-Raf is 73.6%. Besides, on B-Raf (V600E), the inhibition at 1 µM came to 62.2%.

Take `CNC(=O)c1cc(Oc2c(C)nc(NC(=O)NS(=O)(=O)c3ccc(C)cc3)c(C)c2C)ccn1` [Compound 22, N-Methyl-4-((2,4,5-trimethyl-6-(3-tosylureido)pyridin-3-yl)oxy)picolinamide]: the melting point is 187 °C. The inhibition at 1 µM against A-Raf is 9.4%. For the same compound, on C-Raf, the inhibition at 1 µM came to 5.7%. Moreover, at B-Raf (V600E), the inhibition at 1 µM came to 2.6%.

In turn, `Cc1nc(NC(=O)Nc2ccc(Cl)c(C(F)(F)F)c2)c(C)c(C)c1O` [Compound 25, 1-(4-Chloro-3-(trifluoromethyl)phenyl)-3-(5-hydroxy-3,4,6-trimethylpyridin-2-yl)urea] gave a melting point of 242 °C. The inhibition at 1 µM against A-Raf worked out at 7.9%. The inhibition at 1 µM on C-Raf is -7.7%. The inhibition at 1 µM against B-Raf (V600E) is 8.7%.

For the compound `CCCNC(=O)Nc1nc(C)c(Oc2ccnc(C(=O)NC)c2)c(C)c1C` [Compound 19, N-Methyl-4-((2,4,5-trimethyl-6-(3-propylureido)pyridin-3-yl)oxy)picolinamide], the melting point was 207 °C. Further, at A-Raf, the inhibition at 1 µM is -5.1%. Moreover, the inhibition at 1 µM against B-Raf was -9.2%. Further, on C-Raf, the inhibition at 1 µM amounted to 1.7%.

The record behind these values is paper PMC8344761 (Journal of Enzyme Inhibition and Medicinal Chemistry, 2021).
